Patent US20110251128A1, “THYMOSIN Beta4 PEPTIDES PROMOTE TISSUE REGENERATION” (The Board of Regents of the University of Texas System, priority 2010, published 2011)
“Also recorded” adds a separate entry of the source.

Experiments:
[1] = system: C57BL/6J male mice after coronary ligation; experiment: Myocardial infarction by LAD coronary ligation in adult mice: echocardiography, scar volume, myocyte size; format: in vivo, mouse
From the text: (§1) Animals and Surgical procedures. Mice: Myocardial infarctions were produced in seventy C57BL/6J male mice at 16 weeks of age (25-30 g) by ligation of the left anterior descending (LAD) coronary artery as described (Garner et al., 2003). All animal protocols were reviewed and approved by the University of Texas Southwestern Medical School Institutional Animal Care Advisory Committee and were in compliance with the rules governing animal use as published by the NIH. Mice were sedated in an isoflurane chamber (5%) for 60 seconds until self-designed coaxial mask could be safely applied. The mask supplied continuous isoflurane (2.0%) and oxygen (98.0%) under positive pressure from a Harvard small animal respirator throughout the procedures. Immediately after ligation mice were injected with 200 ng of peptide in […] or […] PBS in collagen intracardially in the infarction border, and with […] PBS intraperitoneally as described (Bock-Marquette et al., 2004). Intraperitoneal injections were repeated every three days after ligation. Effective doses of the peptides were calculated based on optimal in vitro cell migration effect and on biodistribution calculations of full length TB4 (Mora et al., 1997). The inventors administered buprenorphine (0.05 mg/kg) for post-operative pain control. Hearts were removed 1, 14 and 21 days after ligation and processed for further investigations.
Analysis of cardiac function by echocardiography: Echocardiograms to assess systolic function were performed using M-mode and 2-dimensional measurements as described previously (Garner et al., 2003). The measurements represented the average of six selected cardiac cycles from at least two separate scans performed in random-blind fashion with papillary muscles used as a point of reference for consistency in level of scan. End diastole was defined as the maximal left ventricle (LV) diastolic dimension and end systole was defined as the peak of posterior wall motion. Single outliers in each group were omitted for statistical analysis. Fractional shortening (FS), a surrogate of systolic function, was calculated from LV dimensions as follows: FS=[(EDD−ESD)/EDD]×100%. Ejection fraction (EF) was calculated as follows: EF=[(edd^3−esd^3)/edd^3]×100%. EDD, end diastolic dimension; ESD, end systolic dimension.
Calculation of scar volume and myocyte size: Scar volume was calculated after Masson's trichrome staining in six sections through the heart of each mouse using Openlab 3.03 software (Improvision) similar to previously described (Bock-Marquette et al., 2004). Percent area of collagen deposition was measured on each section in blinded fashion and averaged for each mouse.

adult infarcted pigs = experiment: Ischemia reperfusion (acute myocardial infarction) in pigs with retroinfusion of peptides; format: in vivo, pig
Protocol: Pigs: German pigs were purchased from the animal research department of the Ludwig-Maximilians-University (Oberschleissheim, Germany). Animal care and all experimental procedures were performed in accordance to the German and NIH animal legislation guidelines and were approved by the Bavarian Animal Care and Use Committee (AZ 55.2-1-54-2531-26/09). All animal experiments were conducted at the Walter Brendel Centre of Experimental Medicine, University of Munich.
Ischemia reperfusion experiments: Pigs (n=5/experimental group) were anesthetized and instrumented as described previously (Hinkel et al., 2008). Briefly, a balloon was placed in the left anterior descending artery (LAD) distal to the bifurcation of the first diagonal branch and inflated for 60 min. Correct localization of the coronary occlusion and patency of the first diagonal branch were ensured by injection fluoroscopy. Regional application of TB4 peptides or saline solution was performed via selective pressure regulated retroinfusion for 10 min into the anterior interventricular vein (AIV) draining the LAD-perfused myocardium (Kupatt et al., 2005).
Global myocardial function: At day 0 before ischemia induction and after 24 h of reperfusion myocardial function was obtained via Millar pressure tip catheter. Therefore the Millar pressure tip catheter was placed in the left ventricle and left ventricular pressure was recorded for off-line analysis.
Regional myocardial function: 24 hours after induction of ischemia, sternotomy was performed and ultrasonic crystals were placed subendocardial into the area at risk, the infracted area as well as into the Cx perfusion area in a standardized manner. Subendocardial segment shortening (SES) was assessed under resting heart rate as well as at 120 and 150 beats/min atrial pacing (for 1 min/each).
Infarct size and local inflammation: For assessment of infarct size methylene blue was injected in the left ventricle for negative staining of the AAR and tetrazolium red was applied into the LAD for viability staining in the infracted area. Thereafter, left ventricle was cut into slices (5 mm thick), and subjected to digital photography. Planimetry of different slices was conducted via ImageJ for assessment of infarct size in % of AAR. Tissue samples from infarct, area at risk and non-ischemic control were harvested for leukocyte recruitment. Myeloperoxidase assays were performed as previously described (Kupatt et al., 2005).

mature coronary vessels = experiment: Immunohistochemistry, smooth muscle α-actin positive vessels at infarction border zone; format: in vivo, mouse
From the text: as §1
Immunohistochemistry. Adult mouse cardiac tissue was fixed in 4% paraformaldehyde and sections were analyzed by immunohistochemistry. Hearts were sectioned at eight levels from the base to the apex. Serial sections were immunostained with primary antibodies against Pecam-1 and Wt-1 (1:50) (Santa Cruz), Smooth muscle a-actin (1:220) (Sigma), Sarcomeric a-actinin (1:200) (Sigma), Connexin43 (1:200) (Invitrogen), pS368-Connexin43 (1:200) (Cell Signaling Technology) as recommended by the manufacturer. Terminal deoxynucleotidyl transferase dUTP nick end labeling (TUNEL) assay was performed using In Situ Cell Detection kit (Roche). Number of sm a-actin positive capillaries and Wt-1 positive cells were counted at the infarction border zone in high power photographs at all levels of the sections in three peptide, TB4 and PBS treated hearts respectively.

Connexin43 = Connexin43 expression (Western blot) and localization (immunohistology) in infarcted hearts; format: in vivo, mouse
From the text: Animals and Surgical procedures. Mice: Myocardial infarctions were produced in seventy C57BL/6J male mice at 16 weeks of age (25-30 g) by ligation of the left anterior descending (LAD) coronary artery as described (Garner et al., 2003). All animal protocols were reviewed and approved by the University of Texas Southwestern Medical School Institutional Animal Care Advisory Committee and were in compliance with the rules governing animal use as published by the NIH. Mice were sedated in an isoflurane chamber (5%) for 60 seconds until self-designed coaxial mask could be safely applied. […] Effective doses of the peptides were calculated based on optimal in vitro cell migration effect and on biodistribution calculations of full length TB4 (Mora et al., 1997). […]
Western blot. […] The protein fraction was isolated from the interphase of the Trizol purification as recommended by the manufacturer; 10 μg of the total protein was loaded and analyzed by Western blot with protein-specific primary antibodies: VEGF, p-Marcks, p-Akt, and GAPDH (1:100) (Santa Cruz), Connexin43 (1:50) (Invitrogen), N-Cadherin (1:5000) (BD Biosciences) and pS368-Connexin43 (1:1000) (Cell Signaling Technology).
Immunohistochemistry. Adult mouse cardiac tissue was fixed in 4% paraformaldehyde and sections were analyzed by immunohistochemistry. […]

[2] = 21 days after ligation, compared to PBS
[3] = three weeks after ligation, intracardiac once plus intraperitoneal every three days

## Thymosin β4 [TB4]
[1]; [2]
  myocyte diameter / size in the ischemic area: increased myocyte diameter; also recorded: significantly increase the size of surviving cardiomyocytes
  scar (Masson's trichrome staining): significant reduction of the scar
[1]; after three weeks
  end systolic diameter (ESD): significantly decreased
[1]; [3]
  calculated ejection fraction (EF): 50.9+/−3.6%
  mean fractional shortening (FS): 87.4+/−2.6%
Adult infarcted pigs; after ischemia and 24 h reperfusion
  left ventricular end-diastolic pressure: 10.4+/−0.8 mmHg
Adult infarcted pigs; at rest and under increased heart rate (atrial pacing)
  regional myocardial function in the infarcted area: significantly improved
Adult infarcted pigs; in % of AAR, 60 min occlusion, retroinfusion at onset of reperfusion, n=5
  infarct size: 35+/−3%
Adult infarcted pigs; ischemic heart tissue after retroinfusion
  post-ischemic inflammatory leukocyte influx (myeloperoxidase activity): reduced post-ischemic inflammatory leukocyte influx
Mature coronary vessels; 21 days / three weeks, compared to PBS
  number of mature, smooth muscle α-actin positive vessels: increase the number of mature, smooth muscle a-actin positive vessels
Mature coronary vessels; two weeks after treatment, compared to PBS (FIG. 10)
  number of mature coronary vessels: increases
Connexin43; border zone of cardiac infarction
  Cx43 localization: stayed primarily at the intercalated discs; also recorded: mainly localized to the intercalated discs
Connexin43; infarcted cores, 21 days after infarction
  Cx43 expression: significant increase in Cx43 expression; also recorded: significant increase in Cx43 level
